# Measurements as given in ChEMBL document CHEMBL4339232, “Exploiting Chemical Toolboxes for the Expedited Generation of Tetracyclic Quinolines as a Novel Class of PXR Agonists” (ACS Med Chem Lett, 2019).
# Columns and labels:
# [1] = biological target: T1, PXR (Nuclear receptor subfamily 1 group I member 2) (Homo sapiens, UniProt O75469); assay: Agonist activity at PXR (unknown origin) at 20 uM by AlphaScreen assay relative to T0901317; details: read-out: Activity
# T1 sequence (O75469 whole entry): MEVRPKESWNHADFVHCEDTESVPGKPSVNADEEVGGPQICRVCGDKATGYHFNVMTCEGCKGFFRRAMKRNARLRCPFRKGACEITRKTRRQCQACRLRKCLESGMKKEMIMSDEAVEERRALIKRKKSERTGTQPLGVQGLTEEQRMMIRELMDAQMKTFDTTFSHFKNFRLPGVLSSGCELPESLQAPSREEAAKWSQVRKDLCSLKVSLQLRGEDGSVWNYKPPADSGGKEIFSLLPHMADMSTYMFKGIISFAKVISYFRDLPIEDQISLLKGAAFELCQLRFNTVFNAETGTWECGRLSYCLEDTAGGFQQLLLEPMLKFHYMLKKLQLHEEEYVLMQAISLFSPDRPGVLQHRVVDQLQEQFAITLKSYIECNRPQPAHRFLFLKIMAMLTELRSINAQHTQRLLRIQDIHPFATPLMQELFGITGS
# [2] = biological target: T2, Nuclear receptor subfamily 1 group I member 2 (Homo sapiens, UniProt O75469); assay: Agonist activity at PXR (unknown origin) by AlphaScreen assay
# T2 sequence (O75469 whole entry): T1 sequence (O75469 whole entry)
# [3] = biological target: T1, PXR (Nuclear receptor subfamily 1 group I member 2); assay: Agonist activity at PXR (unknown origin) assessed as maximum receptor activation response at 20 uM by AlphaScreen assay relative to T0901317; details: read-out: Efficacy
Compound,activity at 20 µM [1] [%],EC50 [2] [µM],Emax at 20 µM [3] [%]
c1ccc([C@H]2Nc3c(ccc4c3CCCC4)[C@@H]3OCC[C@H]23)cc1 (racemic),< 25,–,–
c1csc([C@@H]2Nc3c(ccc4c3CCCC4)[C@@H]3OCC[C@H]23)c1 (racemic),50 to 75,–,–
c1coc([C@H]2Nc3c(ccc4c3CCCC4)[C@@H]3OCC[C@H]23)c1 (racemic),< 25,–,–
c1cc([C@@H]2Nc3c(ccc4c3CCCC4)[C@@H]3NCCC[C@H]23)cs1 (racemic),< 25,–,–
c1cc([C@@H]2Nc3c(ccc4c3CCCC4)[C@@H]3OCC[C@H]23)cs1 (racemic),75 to 100,3.5,42
c1coc([C@@H]2Nc3c(ccc4c3CCCC4)[C@@H]3OCC[C@H]23)c1 (racemic),50 to 75,–,–
c1ccc([C@H]2Nc3c(ccc4c3CCCC4)[C@@H]3OCCC[C@H]23)cc1 (racemic),< 25,–,–
c1ccc([C@@H]2Nc3c(ccc4c3CCCC4)[C@@H]3OCC[C@H]23)cc1 (racemic),25 to 50,–,–
c1coc([C@@H]2Nc3c(ccc4c3CCCC4)[C@@H]3OCCC[C@H]23)c1 (racemic),50 to 75,–,–
c1coc([C@@H]2Nc3c(ccc4c3CCCC4)[C@@H]3NCCC[C@H]23)c1 (racemic),< 25,–,–
c1coc([C@@H]2Nc3c(ccc4c3CCCC4)[C@@H]3NCC[C@H]23)c1 (racemic),< 25,–,–
c1ccc([C@@H]2Nc3c(ccc4c3CCCC4)[C@@H]3OCCC[C@H]23)cc1 (racemic),< 25,–,–
c1cc([C@@H]2Nc3c(ccc4c3CCCC4)[C@@H]3NCC[C@H]23)cs1 (racemic),< 25,–,–
c1csc([C@H]2Nc3c(ccc4c3CCCC4)[C@@H]3OCC[C@H]23)c1 (racemic),< 25,–,–
c1cc([C@H]2Nc3c(ccc4c3CCCC4)[C@@H]3OCC[C@H]23)cs1 (racemic),25 to 50,–,–
c1coc([C@H]2Nc3c(ccc4c3CCCC4)[C@@H]3OCCC[C@H]23)c1 (racemic),< 25,–,–

# The next lines start with the values.
activity at 20 µM [1] [%],EC50 [2] [µM],Emax at 20 µM [3] [%],Compound
–,3.7,15,CC(C)(C)OC(=O)N1CC[C@@H]2[C@@H](c3ccsc3)Nc3c(ccc4c3CCCC4)[C@@H]21 (racemic)
50 to 75,3.2,60,CC(C)(C)OC(=O)N1CC[C@H]2[C@@H](c3ccsc3)Nc3c(ccc4c3CCCC4)[C@H]21
75 to 100,1.5,53,CC(C)(C)OC(=O)N1CC[C@@H]2[C@H](c3ccco3)Nc3c(ccc4c3CCCC4)[C@@H]21 (racemic)
25 to 50,–,–,CC(C)(C)OC(=O)N1CCC[C@@H]2[C@@H](c3ccco3)Nc3c(ccc4c3CCCC4)[C@@H]21 (racemic)
50 to 75,–,–,CC(C)(C)OC(=O)N1CC[C@@H]2[C@H](c3ccccc3)Nc3c(ccc4c3CCCC4)[C@@H]21 (racemic)
25 to 50,–,–,CC(C)(C)OC(=O)N1CCC[C@@H]2[C@H](c3ccco3)Nc3c(ccc4c3CCCC4)[C@@H]21 (racemic)
–,8.4,28,CC(C)(C)OC(=O)N1CC[C@@H]2[C@H](c3ccsc3)Nc3c(ccc4c3CCCC4)[C@@H]21 (racemic)
75 to 100,1.2 to 1.6,82 to 119,CC(C)(C)OC(=O)N1CC[C@@H]2[C@H]1c1ccc3c(c1N[C@H]2c1ccsc1)CCCC3
< 25,–,–,CC(C)(C)OC(=O)N1CCC[C@@H]2[C@@H](c3ccccc3)Nc3c(ccc4c3CCCC4)[C@@H]21 (racemic)
< 25,–,–,CC(C)(C)OC(=O)N1CCC[C@@H]2[C@@H](c3ccsc3)Nc3c(ccc4c3CCCC4)[C@@H]21 (racemic)
< 25,–,–,c1ccc([C@@H]2Nc3c(ccc4c3CCCC4)[C@@H]3NCC[C@H]23)cc1 (racemic)
< 25,–,–,CC(C)(C)OC(=O)N1CCC[C@@H]2[C@H](c3ccccc3)Nc3c(ccc4c3CCCC4)[C@@H]21 (racemic)
50 to 75,–,–,CC(C)(C)OC(=O)N1CCC[C@@H]2[C@H](c3ccsc3)Nc3c(ccc4c3CCCC4)[C@@H]21 (racemic)
25 to 50,–,–,CC(C)(C)OC(=O)N1CC[C@@H]2[C@@H](c3ccco3)Nc3c(ccc4c3CCCC4)[C@@H]21 (racemic)
< 25,–,–,CC(C)(C)OC(=O)N1CC[C@@H]2[C@@H](c3ccccc3)Nc3c(ccc4c3CCCC4)[C@@H]21 (racemic)
